Like-named read-outs stand apart in the source and are kept apart here.
Tests used:
[1] = Foam height test (vortexed paste/gel/water mixture with surfactant); format: physicochemical; details: 1% total surfactant (actives); for Total Height: 1 g surfactant-free paste of Table 1, 1 g surfactant-free gel of Table 2, 6 g water, vortex 1 minute, foam plus liquid underneath; for Liquid Height: volume of liquid underneath the foam, less than 5 mL not quantifiable
Experimental: The test used 1% total surfactant (actives). The surfactant was added to an aqueous mixture containing 1 g of surfactant-free paste of Table 1, 1 g of the surfactant-free version of the gel of Table 2, and 6 g of water. The mixture, prepared in a centrifuge tube, is placed on a Vortex-Genie 2 (Scientific Industries) on setting 5, and allowed to vortex for 1 minute. The total height measured was the total volume of the foam plus any liquid underneath. The liquid height was the volume of liquid underneath the foam. Liquid volumes of less than 5 mL could not be quantified since the lowest level on the centrifuge tube used to conduct the foam test was 5 mL.

[2] = format: physicochemical; details: paste of Table 1 with surfactant

Row | Compound | Total Height [1] [mL] | Liquid Height [1] [mL] | Phase Behavior ([2]; stored at 100° F.) | Phase Behavior ([2]; stored at RT) | Saturated solution concentration
1 | CCCCCCCCCCOS(=O)(=O)[O-].[Na+] [SDS, Sodium Decyl Sulfate] | 19 | <5 | – | – | –
2 | CCCCCCCCCCCCOS(=O)(=O)[O-].[Na+] [SLS, Sodium Lauryl Sulfate] | 9 | 7 | Single Phase | Single Phase | –
3 | O=C([O-])O.[Na+] [sodium bicarbonate] | – | – | – | – | about 3.8%
4 | Cocamidopropyl Betaine [CBT] | 10 | 7 | – | – | –
5 | Sodium Laureth Sulfate, 1 Ether Group [SLES-1] | 9 | 7 | – | – | –
6 | Sodium Laureth Sulfate, 2 Ether Groups [SLES-2] | 9 | 7 | – | – | –
7 | Sodium Laureth Sulfate, 3 Ether Groups [SLES-3] | 10 | 7 | – | – | –

— US20060093562A1 (priority 2004, published 2006)
